Experimental data published in patent publication US20260191933A1, “PHARMACEUTICAL COMBINATIONS AND USES THEREOF” (The University of Melbourne, priority 2022, published 2026).

Experiments:
CSPG-ECM (neurofibrosis) = experiment: I.C.V. fluorosamine in obese mice: CSPG-ECM expression (WFA immunostaining); assay type: in vivo, C57BL/6J mice
Method: (§1) All image quantification was performed in Image J (NIH) software (NIH, MA). Raw images underwent background subtraction using a rolling ball algorithm to minimize background and any potential variance in tissue autofluorescence. To quantify area and intensity of the CSPG-ECM within each brain region (ARC, VMH or RSG cortex) images were thresholded and binarized to create a region of interest (ROI) mask of only the CSPG-ECM. For each brain area, CSPG-ECM ROI area (μm^2) and intensity (sum of all pixel intensities within the ROI) was calculated. This process was automated to minimise bias and to account for differences in brain nuclei size across multiple images. Brain nuclei were defined in accordance with the Paxinos and Franklin mouse brain atlas (http://labs.gaidi.ca/mouse-brain-atlas/). The area and intensity of CSPG-ECM within each region was normalised to the respective control.
(§2) Under isoflurane anaesthetic 12-week HFHS fed C57BL/6J or AgRP-Cas9 mice were implanted stereotaxically with guide cannulas into the right lateral ventricle (0.2 mm posterior, 1.0 mm lateral from bregma). Guide cannula was positioned 1.3 mm above the injection site (1 mm ventral to the surface of the skull). AgRP-Cas9 mice were treated with either AAV-gScrambled or AAV-gIR and underwent guide cannula placement 7 days post AAV administration. Mice were administered I.C.V. vehicle (ddH2O), fluorosamine (100 μg/animal/day or 250 μgl/animal/day) in a volume of 2 μl/animal and all compounds were delivered approximately 1 h before lights off (7 pm).

[1] = system: 12-week HFHS fed obese mice; experiment: I.C.V. fluorosamine in obese mice: body weight, adiposity, energy expenditure, food intake; assay type: in vivo, C57BL/6J mice; conditions: I.C.V. for 10 days
Method: (§3) Metabolic measurements were undertaken in the Melbourne Mouse Metabolic Phenotyping Platform (The University of Melbourne, Australia). Glucose tolerance tests were performed on 6 h fasted conscious mice respectively by injecting D-glucose (2 mg/g of lean body mass and 1 mg/g lean mass for db/db and HFHS+STZ mice) into the peritoneal cavity and measuring glucose in tail blood immediately before and at 15, 30, 45, 60, 90 and 120 min after injection using an Accu-Check glucometer (Roche, Germany). The areas under glucose excursion curves were determined and expressed as mmol/l×min. Fasted (12 h fast) plasma insulin or glucose levels were determined using a Rat/Mouse Insulin ELISA (EZRMI-13K, Merck Millipore, CA) or an Accu-Check glucometer respectively. The HOMA-IR was calculated using the equation [(glucose×insulin)/405]. Adiposity was measured using TD-NMR minispec (Bruker Optics Inc., Billerica, MA).
(§4) Mice were acclimated for 24 h and then monitored for 48 h in an environmentally controlled Promethion Metabolic Screening System (Sable Systems International, NV) fitted with indirect open circuit calorimetry, food consumption and activity monitors to measure activity, caloric intake and energy expenditure. Respiratory quotients were calculated as the ratio of CO2 production over O2 consumption respiratory exchange ratio and energy expenditure was calculated using the Weir equation (Kcal h−1=60×(0.003941×VO2+0.001106×VCO2). To account for difference in body mass/composition energy expenditure was analysed and adjusted using ANCOVA using scripts available at the National Mouse Metabolic Phenotyping Centers (MMPC, Nashville, TN, USA) Energy Expenditure Analysis Page (https://www.mmpc.org/shared/regression.aspx).
as §2

ARC CSPG-ECM = experiment: Intranasal PZ6005 in obese mice: ARC CSPG-ECM expression (WFA immunostaining); assay type: in vivo, C57BL/6J mice; conditions: for ARC neurofibrosis / area and intensity of ARC CSPG-ECM: obese mice, intranasal 14 days, 1 or 5 mg/animal/day
Method: as §1

[2] = system: insulin receptor signalling within the ARC (pAKT); experiment: Intranasal PZ6005: ARC pAKT +ve. cells after insulin; assay type: in vivo, C57BL/6J mice; conditions: both doses, 14-day intranasal administration
Method: (§5) Mice were injected intraperitoneally with vehicle (PBS) or insulin (3 mU/g, i.p., Actrapid, Nova Nordisk, Denmark) and mice were transcardially perfused (as described above) 15 min with 10% neutral buffered formalin. The brains were post-fixed for 16 h on a rocking platform at RT and then kept for two days in 30% sucrose in PBS to cryoprotect the tissue, before freezing on dry ice. 30 μm sections were cut in the coronal plane throughout the entire rostral-caudal extent of the hypothalamus. Sections were pre-treated for 10 mins in 0.3% glycine, washed in PBS-T and incubated for 10 min in 0.03% SDS. Sections were then blocked in 5% blocking buffer for 1 h at RT and incubated for 48 h with rabbit anti-p-AKT (Ser-473) (1:300; #4060, Cell Signaling Technology, Beverly, MA) in 1% blocking buffer. Sections were then incubated in 5% blocking buffer containing either goat anti-rabbit Alexa Fluor 647 (ab150083, Abcam, Cambridge, UK) or biotinylated goat anti-rabbit (BA-1000, Vector Laboratories, CA, no sodium azide in blocking buffer). […]

[3] = system: ARC insulin receptor signalling (pAKT); experiment: I.C.V. PZ6005 and/or S.C. liraglutide: ARC pAKT +ve. cells after insulin; assay type: in vivo, C57BL/6j mice; conditions: after 28-day treatment; compared with liraglutide alone group
Method: as §5

[4] = system: GLP-1 receptor signalling (pERK) in the ARC; experiment: I.C.V. PZ6005 and/or S.C. liraglutide: ARC pERK +ve. cells after liraglutide; assay type: in vivo, C57BL/6j mice; conditions: after 28-day treatment; compared to controls and liraglutide alone
diet-induced obese mice = experiment: I.C.V. PZ6005 and/or S.C. liraglutide, 28 days: body weight, adiposity, food intake, energy expenditure; assay type: in vivo, C57BL/6j mice
Method: as §3, §4

[5] = intranasal 1 mg/animal/day, 14 days

In the case of `CC(=O)NC1C(OC(C)=O)OC(COC(C)=O)[C@@H](F)C1OC(C)=O` (some centres unmarked) [PZ6005, per-O-acetylated-4-F-N-acetylglucosamine], the “CSPG-ECM expression in the habenula” value (CSPG-ECM (neurofibrosis); I.C.V., at the highest dose) was “only partially attenuated”, the “neurofibrosis within the ARC (WFA immunostaining)” value (CSPG-ECM (neurofibrosis); obese mice, I.C.V. daily for 10 days) was “significantly attenuated” and the “CSPG-ECM in other brain areas such as the RSG cortex” value (CSPG-ECM (neurofibrosis); obese mice, I.C.V. for 10 days) was “did not reduce”. The adiposity [1] was “reduced adiposity”, the body weight [1] was “promoted weight loss” and the energy expenditure ([1]; independently of ambulatory activity) was “enhanced energy expenditure”. The food intake ([1]; through enhanced satiety) was “supressed food intake”, the “CSPG-ECM area lower than the controls” value (ARC CSPG-ECM; [5]) was 13.54±1.03% and the “CSPG-ECM intensity decreased by” value (ARC CSPG-ECM; [5]) was 15.94±7.17%. The “CSPG-ECM intensity reduced by” value (ARC CSPG-ECM; intranasal 5 mg/animal/day (highest dose), 14 days) was 30.16±1.52%, the “CSPG-ECM area lower than the controls” value (ARC CSPG-ECM; intranasal 5 mg/animal/day, 14 days) was 13.59±4.09% and the “ARC neurofibrosis / area and intensity of ARC CSPG-ECM” value (ARC CSPG-ECM) was “robustly diminished”. The “ARC neurofibrosis / area and intensity of ARC CSPG-ECM” value (ARC CSPG-ECM; listed as fluorosamine) was “successfully attenuated”, the “ARC pAKT +ve. cells” value [2] was “robust increase” and the “ARC pAKT +ve. cells” value [3] was “more ARC pAKT +ve. cells”. The “ARC pERK +ve. cells” value [4] was “markedly increased”, the “mass of ingWAT, epiWAT and the liver” value (diet-induced obese mice; 28-day treatment, compared with control littermates) was “lower mass” and the “difference in fat mass between the mid- and post-treatment” value (diet-induced obese mice; 14 days after last PZ6005 dose) was “no significant difference”. The “energy expenditure and oxygen consumption” value (diet-induced obese mice; Day 8-Day 11 of the treatment, day and night) was “consumed more energy” and the “mean percentage change in weight” value (diet-induced obese mice; day 28, PZ6005 100 μg/animal I.C.V. every other day first 14 days, liraglutide 200 μg/kg/day S.C. 28 days) was −13.02±1.15%.
